Results published in patent US20160244404A1, “OPTICAL ISOMERS OF (+) AND (-)-BENZHYDRYL UREAS AND (+) AND (-)-1-[(3-CHLOROPHENYL)-PHENYL-METHYL] UREA, A PHARMACEUTICAL COMPOSITION BASED THEREON AND A METHOD FOR PRODUCING SAID OPTICAL ISOMERS” (priority 2013, published 2016).
Marks after values point to notes of the source that are not given here.

Columns and labels:
animals = assay: Establishing the convulsion-inducing dose of pentylenetetrazol; assay type: in vivo
Procedure: (§1) Convulsions were induced by the administration of pentylenetetrazol. The severity (stage) of the convulsions was rated on a five-point scale. The anticonvulsant potency was rated on the basis of the substance's ability to reduce the severity of convulsions induced by the pentylenetetrazol. Halodif substances were administered intragastrically over 2 hr prior to the pentylenetetrazol. The pentylenetetrazol was administered subcutaneously. Probit analysis was used for statistical processing of the results with Student's test, ANOVA and criterion x. The differences in the results were considered statistically reliable at a significance level of p<0.05.
In the first phase of the study the optimum convulsion-inducing dose of pentylenetetrazol, CD97, which was 110 mg/kg (Table 1) was established.

[1] = tested on: convulsions induced by pentylenetetrazol; assay: Anticonvulsant potency against convulsions induced by pentylenetetrazol; assay type: in vivo; conditions: for mean convulsions score compared with that of the reference sample: all doses studied: 100 mg/kg, 150 mg/kg, 250 mg/kg; for anticonvulsive potency compared with the reference substance: on the basis of mean convulsions scores, 100, 150, 250 mg/kg; for Protection against stage 3 convulsions (% protection) / Protection against stage 4 convulsions (% protection) / Protection against stage 5 convulsions (% protection) / convulsive manifestations (points) induced by pentylenetetrazol (X ± SE): n = 10; for convulsive manifestations (points) induced by pentylenetetrazol (X ± SE): five-point scale
Procedure: as §1
In the second phase the anticonvulsant potency of the reference substance was study in doses of 50 mg/kg, 100 mg/kg, 150 mg/kg, 200 mg/kg and 500 mg/kg (Table 2). The reference substance was racemic halodif. […] The halodif reference substance was used in doses of 50 mg/kg, 100 mg/kg, 150 mg/kg, 200 mg/kg and 500 mg/kg. Two hours after the halodif substance was administered to the animals the pentylenetetrazol (110 mg/kg) was administered and stage 3 and stage 5 convulsions were rated.
Samples were compared on the basis of the mean score for convulsive manifestations induced by pentylenetetrazol after administration of the samples under study.
The anticonvulsive potency of the samples of the halodif substance under study were also compared with respect to the proportion of animals in which the substance under study prevented the development of convulsions of differing severity induced by pentylenetetrazol. Table 4 presents the results expressed as the percentage of animals in which no convulsions of the specified stage developed (% protection).

[2] = pentylenetetrazol dose 90, 5 animals in the group
[3] = pentylenetetrazol dose 100, 5 animals in the group
[4] = pentylenetetrazol dose 110, 5 animals in the group
[5] = sample dose 100 mg/kg 2 hours before pentylenetetrazol 110 mg/kg
[6] = sample dose 100 mg/kg 2 hours before pentylenetetrazol 110 mg/kg, listed as Sample 4/(+) isomer
[7] = sample dose 100 mg/kg intragastrically 2 hours before pentylenetetrazol 110 mg/kg
[8] = sample dose 150 mg/kg 2 hours before pentylenetetrazol 110 mg/kg
[9] = sample dose 150 mg/kg intragastrically 2 hours before pentylenetetrazol 110 mg/kg
[10] = sample dose 250 mg/kg 2 hours before pentylenetetrazol 110 mg/kg
[11] = sample dose 250 mg/kg 2 hours before pentylenetetrazol 110 mg/kg, listed as Sample 4/(+)isomer
[12] = sample dose 250 mg/kg intragastrically 2 hours before pentylenetetrazol 110 mg/kg
[13] = sample dose 100 mg/kg 2 hours before pentylenetetrazol 110 mg/kg, listed as Sample 2/(−) isomer
[14] = sample dose 150 mg/kg 2 hours before pentylenetetrazol 110 mg/kg, listed as Sample 2/(−) isomer
[15] = sample dose 250 mg/kg 2 hours before pentylenetetrazol 110 mg/kg, listed as Sample 2/(−) isomer
[16] = doses of 100 mg/kg and 150 mg/kg, stages 3 and 4
[17] = reference substance 50 mg/kg intragastrically 2 h before pentylenetetrazol 110 mg/kg
[18] = reference substance 100 mg/kg intragastrically 2 h before pentylenetetrazol 110 mg/kg
[19] = reference substance 150 mg/kg intragastrically 2 h before pentylenetetrazol 110 mg/kg
[20] = reference substance 200 mg/kg intragastrically 2 h before pentylenetetrazol 110 mg/kg
[21] = reference substance 500 mg/kg intragastrically 2 h before pentylenetetrazol 110 mg/kg

C1CCc2nnnn2CC1 [Pentylenetetrazol, pentylenetetrazol]
Number of animals with stage 3 convulsions (animals; pentylenetetrazol dose 80 (no unit in table; mg/kg), 5 animals in the group): 0
Proportion of animals with stage 3 (%) (animals; pentylenetetrazol dose 80, 5 animals in the group): 0%
Number of animals with stage 3 convulsions (animals; [2]): 3
Proportion of animals with stage 3 (%) (animals; [2]): 60%
Number of animals with stage 3 convulsions (animals; [3]): 4
Proportion of animals with stage 3 (%) (animals; [3]): 80%
Number of animals with stage 3 convulsions (animals; [4]): 4
Proportion of animals with stage 3 (%) (animals; [4]): 80%
optimum convulsion-inducing dose of pentylenetetrazol, CD97 (animals; subcutaneous): 110 mg/kg

NC(=O)N[C@H](c1ccccc1)c1cccc(Cl)c1 [Sample 3/(+) isomer, (+)-1-[(3-chlorophenyl)-phenyl-methyl]urea]
mean convulsions score compared with that of the reference sample [1]: lower convulsions score
protection against convulsions, comparison of the samples ([1]; all stages (3, 4 and 5)): greater protection
anticonvulsive potency compared with its optical antipode ([1]; in vivo): higher anticonvulsive potency
anticonvulsive potency compared with the reference substance [1]: more anticonvulsive potency
Protection against stage 3 convulsions (% protection) [1, 5]: 30%
Protection against stage 4 convulsions (% protection) [1, 5]: 60%
Protection against stage 5 convulsions (% protection) [1, 5]: 80%
Protection against stage 3 convulsions (% protection) [1, 6]: 20%
Protection against stage 4 convulsions (% protection) [1, 6]: 80%
Protection against stage 5 convulsions (% protection) [1, 6]: 100%
convulsive manifestations (points) induced by pentylenetetrazol (X ± SE) [1, 7]: 3.2 ± 0.42 points
convulsive manifestations (points) induced by pentylenetetrazol (X ± SE) ([1]; sample dose 100 mg/kg intragastrically 2 hours before pentylenetetrazol 110 mg/kg, listed as Sample 4/(+) isomer): 3.0 ± 0.21 points
Protection against stage 3 convulsions (% protection) [1, 8]: 40%
Protection against stage 4 convulsions (% protection) [1, 8]: 90%
Protection against stage 5 convulsions (% protection) [1, 8]: 100%
Protection against stage 3 convulsions (% protection) ([1]; sample dose 150 mg/kg 2 hours before pentylenetetrazol 110 mg/kg, listed as Sample 4/(+)isomer): 30%
convulsive manifestations (points) induced by pentylenetetrazol (X ± SE) [1, 9]: 2.5 ± 0.31 points
convulsive manifestations (points) induced by pentylenetetrazol (X ± SE) ([1]; sample dose 150 mg/kg intragastrically 2 hours before pentylenetetrazol 110 mg/kg, listed as Sample 4/(+) isomer): 2.6 ± 0.31 points
Protection against stage 3 convulsions (% protection) [1, 10]: 70%
Protection against stage 4 convulsions (% protection) [1, 10]: 100%
Protection against stage 5 convulsions (% protection) [1, 10]: 100%
Protection against stage 3 convulsions (% protection) [1, 11]: 50%
Protection against stage 4 convulsions (% protection) [1, 11]: 90%
convulsive manifestations (points) induced by pentylenetetrazol (X ± SE) [1, 12]: 1.9 ± 0.28 points
convulsive manifestations (points) induced by pentylenetetrazol (X ± SE) ([1]; sample dose 250 mg/kg intragastrically 2 hours before pentylenetetrazol 110 mg/kg, listed as Sample 4/(+) isomer): 2.5 ± 0.27 points

NC(=O)NC(c1ccccc1)c1cccc(Cl)c1 (single isomer, unassigned; (-)) [Sample 1/(−) isomer, (−)-1-[(3-chlorophenyl)-phenyl-methyl]urea]
mean convulsions score compared with that of the reference sample [1]: higher
anticonvulsive potency compared with the reference substance [1]: less anticonvulsive potency
Protection against stage 3 convulsions (% protection) [1, 5]: 10%
Protection against stage 4 convulsions (% protection) [1, 5]: 40%
Protection against stage 5 convulsions (% protection) [1, 5]: 60* %
Protection against stage 4 convulsions (% protection) [1, 13]: 20* %
Protection against stage 5 convulsions (% protection) [1, 13]: 70%
convulsive manifestations (points) induced by pentylenetetrazol (X ± SE) [1, 7]: 3.8 ± 0.39 points
convulsive manifestations (points) induced by pentylenetetrazol (X ± SE) ([1]; sample dose 100 mg/kg intragastrically 2 hours before pentylenetetrazol 110 mg/kg, listed as Sample 2/(−) isomer): 4.1 ± 0.23 points
convulsive manifestations (points) induced by pentylenetetrazol (X ± SE) ([1]; sample dose 100 mg/kg intragastrically 2 hours before pentylenetetrazol 110 mg/kg, listed as sample 1): 3.8±0.39 points
Protection against stage 3 convulsions (% protection) [1, 8]: 20%
Protection against stage 4 convulsions (% protection) [1, 8]: 70%
Protection against stage 5 convulsions (% protection) [1, 8]: 80%
Protection against stage 3 convulsions (% protection) [1, 14]: 10%
Protection against stage 4 convulsions (% protection) [1, 14]: 40* %
Protection against stage 5 convulsions (% protection) [1, 14]: 70%
convulsive manifestations (points) induced by pentylenetetrazol (X ± SE) [1, 9]: 2.9 ± 0.29 points
convulsive manifestations (points) induced by pentylenetetrazol (X ± SE) ([1]; sample dose 150 mg/kg intragastrically 2 hours before pentylenetetrazol 110 mg/kg, listed as Sample 2/(−) isomer): 3.5 ± 0.22 points
Protection against stage 3 convulsions (% protection) [1, 10]: 40%
Protection against stage 4 convulsions (% protection) [1, 10]: 80%
Protection against stage 5 convulsions (% protection) [1, 10]: 100%
Protection against stage 3 convulsions (% protection) [1, 15]: 30%
Protection against stage 4 convulsions (% protection) [1, 15]: 70%
convulsive manifestations (points) induced by pentylenetetrazol (X ± SE) [1, 12]: 2.8 ± 0.41 points
convulsive manifestations (points) induced by pentylenetetrazol (X ± SE) ([1]; sample dose 250 mg/kg intragastrically 2 hours before pentylenetetrazol 110 mg/kg, listed as Sample 2/(−) isomer): 3.0 ± 0.37 points
convulsive manifestations (points) induced by pentylenetetrazol (X ± SE) ([1]; sample dose 250 mg/kg intragastrically 2 hours before pentylenetetrazol 110 mg/kg, listed as sample 1): 2.8±0.41 points

NC(=O)NC(c1ccccc1)c1cccc(Cl)c1 (racemic) [Reference sample, 1-[(3-chlorophenyl)-phenyl-methyl]urea, reference compound]
appearance of stage 5 convulsions ([1]; dose 200 mg/kg and higher, pentylenetetrazol 110 mg/kg): completely prevented
protection compared with samples 1 and 2 ((−)-isomer of halodif) [1, 16]: reliably higher protection
protection compared with samples 3 and 4 ((+)-isomer of halodif) [1, 16]: reliably lower protection
animals protected from tonic convulsions in all extremities (stage 5) ([1]; lowest dose (50 mg/kg), pentylenetetrazol 110 mg/kg): 20%
Proportion of animals with stage 3 convulsions (%, n = 5) [1, 17]: 100%
Proportion of animals with stage 5 convulsions (%, n = 5) [1, 17]: 80%
Proportion of animals with stage 3 convulsions (%, n = 5) [1, 18]: 100%
Proportion of animals with stage 5 convulsions (%, n = 5) [1, 18]: 20%
Proportion of animals with stage 3 convulsions (%, n = 5) [1, 19]: 70%
Proportion of animals with stage 5 convulsions (%, n = 5) [1, 19]: 10%
Proportion of animals with stage 3 convulsions (%, n = 5) [1, 20]: 60%
Proportion of animals with stage 5 convulsions (%, n = 5) [1, 20]: 0%
Proportion of animals with stage 3 convulsions (%, n = 5) [1, 21]: 60%
Proportion of animals with stage 5 convulsions (%, n = 5) [1, 21]: 0%
Protection against stage 3 convulsions (% protection) [1, 5]: 20%
Protection against stage 4 convulsions (% protection) [1, 5]: 50%
Protection against stage 5 convulsions (% protection) [1, 5]: 80%
convulsive manifestations (points) induced by pentylenetetrazol (X ± SE) [1, 7]: 3.5 ± 0.31 points
Protection against stage 3 convulsions (% protection) [1, 8]: 30%
Protection against stage 4 convulsions (% protection) [1, 8]: 70%
Protection against stage 5 convulsions (% protection) [1, 8]: 90%
convulsive manifestations (points) induced by pentylenetetrazol (X ± SE) [1, 9]: 2.9 ± 0.28 points
Protection against stage 3 convulsions (% protection) [1, 10]: 50%
Protection against stage 4 convulsions (% protection) [1, 10]: 80%
Protection against stage 5 convulsions (% protection) [1, 10]: 100%
convulsive manifestations (points) induced by pentylenetetrazol (X ± SE) [1, 12]: 2.6 ± 0.33 points
animals in which development of clonic convulsions (stage 3 convulsions) was prevented ([1]; starting at a dose of 150 mg/kg, pentylenetetrazol 110 mg/kg): 30-40%
